Assay results reported in US20250009765A1, “COMPOSITIONS AND METHODS FOR REDUCING SLEEP DI[…] TREATING SLEEP DISORDERS” (FloraScience Inc., priority 2023, published 2025).

How the values were obtained:
Format in all cases: in vivo, human
sleep disturbance [1] = assay: PROMIS Sleep Disturbance 8A survey, randomized blinded placebo-controlled study; details: for Relative Risk for meaningful clinical improvement on the PROMIS Sleep Disturbance 8A / Estimated marginal percentage achieving meaningful clinical improvement on the PROMIS Sleep 8A: 95% CI in parentheses; for Observed % Achieving Meaningful Clinical Improvement on the PROMIS Sleep 8A: 30% or greater reduction from baseline; for % experiencing MCID in PROMIS Sleep Disturbance 8A score: MCID = score reduction of one half the standard deviation of the baseline score; for Estimated marginal percentage achieving meaningful clinical improvement on the PROMIS Sleep 8A: improvement = 30% or greater reduction from baseline; for Parameter Estimate for PROMIS Sleep Disturbances 8a, Treatment: reference placebo, linear mixed-effects model
Method: (§1) The primary aim of this study was to assess the effects of three different formulations of TruCBN softgels and a formulation of 4 mg melatonin on sleep quality, relative to placebo control. There were 5 arms within the study; (1) 4 mg melatonin, (2) 25 mg CBN, (3) 50 mg CBN, (4) 100 mg CBN, and (5) placebo (see Table 1 for further details on study arm formulations). All study arms provided the test article as a softgel. Participants were instructed to take 1 softgel 1-2 hours before bed. To ensure that results were not biased, participants were randomly assigned to product, were blinded to the contents, and were not told what they were taking until the conclusion of the study. The secondary aim of the study was to assess the tolerability of the three formulations of TruCBN softgels and 4 mg melatonin, relative to placebo.
(§2) Study participants were at least 21 years old, endorsed a desire for better sleep quality, and expressed interest in taking a cannabinoid product to improve their sleep. The study was entirely virtual; participants were recruited through online recruitment channels, study product was delivered directly to participants' homes, and all data were collected via online surveys delivered to their mobile device or computer. There were four phases of the study (see FIG. 1 for study timeline): (1) Recruitment and Randomization, (2) Baseline (1 week), (3) Study period (2-5 weeks), and (4) Conclusion.
PROMIS™ Sleep Disturbance 8A: An 8-question survey, with severity thresholds based on T-scores not raw scores. The severity scores are established as follows: • “None to slight”=Less than 55 • “Mild”=55.0-59.9 • “Moderate”=60.0-69.9 • “Severe”=70 and up
The range of raw scores were from 8 to 40, with higher scores translating to greater sleep disturbance (i.e., worse sleep quality). PROMIS™ Sleep Disturbance 8A threshold for minimally important difference: One-half the standard deviation of the baseline score (Purvis, Taylor E. et al., SPINE, 2018, 43(21):1512-1520).
(§3) After receiving study product, each participant was instructed to take 1 softgel each day orally 1-2 hours before bed and complete weekly health and product use surveys. This phase of the study lasted about 4 weeks.
(§4) For precision, adjustments were made for sex, age, race, ethnicity, and body mass index (BMI) in every model. […] Analysis was conducted using Stata 17 and R. An intent-to-treat analysis was run, meaning that all participants who were assigned product (aside from the aforementioned exclusions) were included in the analysis according to their product assignment, regardless of product adherence or study attrition. Visuals of the predicted marginal means of health scores, rather than the raw mean scores, were prepared. Predicted marginal means were calculated from the statistical models and better represent the true differences between arms adjusting for any potential imbalances across arms. A finding that was “significant” means that the likelihood of falsely rejecting the null hypothesis that there were no differences between groups was very small (less than 5%; i.e., the p-value was less than 0.05). In other words, when certain findings were said to be “significant” they are not considered the result of random variation.

sleep disturbance [2] = assay: PROMIS Sleep Disturbance SF4A survey, randomized blinded placebo-controlled study; details: for Relative Risk for meaningful clinical improvement on the PROMIS Sleep SF4A / Estimated marginal percentage achieving meaningful clinical improvement on the PROMIS Sleep SF4A: 95% CI in parentheses; for Observed % Achieving Meaningful Clinical Improvement on the PROMIS Sleep SF4A: 30% or greater reduction from baseline; for Estimated marginal percentage achieving meaningful clinical improvement on the PROMIS Sleep SF4A: improvement = 30% or greater reduction from baseline
Method: as §1, §2
The PROMIS™ Sleep Disturbance SF4A threshold for minimally important difference: One-half the standard deviation of the baseline score (Norman, G. R. et al., Med. Care, 2003, 41:582-592).
as §3, §4

sleep disturbance [3] = assay: Participant global impression of change (PGIC) in sleep disturbance; details: for Odds Ratio (95% Confidence interval), sleep disturbance PGIC: Dunnett correction; for Parameter estimate for PGIC in sleep disturbance: treatment reference placebo, log-odds scale
Method: as §1
Participants received a final study survey asking about their overall experiences and impressions. Afterwards they also receive a Report containing their individualized data.
as §4

[4] = Average time to effect reported by participants; details: oral
Method: as §3
Participants reported experiencing an effect between 46 and 55 minutes after taking their study product.

[5] = Tolerability: side effects reported by participants
Method: as §1, §3
The side effects for all study arms were similar in frequency and mostly mild; none were considered serious or required use of emergency or non-emergency healthcare services. The most commonly reported side effect was grogginess or drowsiness (see FIG. 7). Additional side effects reported by some participants included: chest pain, constipation, urinary tract infection, tingling in lips, dry mouth, weight gain, dry or itchy eyes, low libido, rash, and brain fog.

CCCCCc1cc(O)c2c(c1)OC(C)(C)c1ccc(C)cc1-2 [CBN, 6,6,9-trimethyl-3-pentyl-benzo[c]chromen-1-ol]
Relative Risk for meaningful clinical improvement on the PROMIS Sleep Disturbance 8A (sleep disturbance [1]; 25 mg CBN − placebo): 1.33 (0.65, 2.01) | Observed % Achieving Meaningful Clinical Improvement on the PROMIS Sleep 8A (sleep disturbance [1]; 25 mg CBN): 46.7% | % experiencing MCID in PROMIS Sleep Disturbance 8A score (sleep disturbance [1]; 25 mg CBN): 46.7% | Estimated marginal percentage achieving meaningful clinical improvement on the PROMIS Sleep 8A (sleep disturbance [1]; 25 mg CBN): 47.1% (35.41%, 62.66%) | Parameter Estimate for PROMIS Sleep Disturbances 8a, Treatment (sleep disturbance [1]; 25 mg CBN): 0.14 | Estimated marginal mean, PROMIS Sleep Disturbance 8A (sleep disturbance [1]; 25 mg CBN, week 1): 21.6 | Estimated marginal mean, PROMIS Sleep Disturbance 8A (sleep disturbance [1]; 25 mg CBN, week 2): 20.6 | Estimated marginal mean, PROMIS Sleep Disturbance 8A (sleep disturbance [1]; 25 mg CBN, week 3): 21.3 | Estimated marginal mean, PROMIS Sleep Disturbance 8A (sleep disturbance [1]; 25 mg CBN, week 4): 20.9 | Relative Risk for meaningful clinical improvement on the PROMIS Sleep Disturbance 8A (sleep disturbance [1]; 50 mg CBN − placebo): 1.46 (0.72, 2.2) | Observed % Achieving Meaningful Clinical Improvement on the PROMIS Sleep 8A (sleep disturbance [1]; 50 mg CBN): 53.6% | % experiencing MCID in PROMIS Sleep Disturbance 8A score (sleep disturbance [1]; 50 mg CBN): 53.6% | Estimated marginal percentage achieving meaningful clinical improvement on the PROMIS Sleep 8A (sleep disturbance [1]; 50 mg CBN): 51.6% (38.93%, 68.48%) | Parameter Estimate for PROMIS Sleep Disturbances 8a, Treatment (sleep disturbance [1]; 50 mg CBN): 0.28 | Estimated marginal mean, PROMIS Sleep Disturbance 8A (sleep disturbance [1]; 50 mg CBN, week 1): 20.4 | Estimated marginal mean, PROMIS Sleep Disturbance 8A (sleep disturbance [1]; 50 mg CBN, week 2): 21 | Estimated marginal mean, PROMIS Sleep Disturbance 8A (sleep disturbance [1]; 50 mg CBN, week 3): 20.7 | Estimated marginal mean, PROMIS Sleep Disturbance 8A (sleep disturbance [1]; 50 mg CBN, week 4): 20.3 | Relative Risk for meaningful clinical improvement on the PROMIS Sleep Disturbance 8A (sleep disturbance [1]; 100 mg CBN − placebo): 1.39 (0.7, 2.08) | Observed % Achieving Meaningful Clinical Improvement on the PROMIS Sleep 8A (sleep disturbance [1]; 100 mg CBN): 50.0% | % experiencing MCID in PROMIS Sleep Disturbance 8A score (sleep disturbance [1]; 100 mg CBN): 50.0% | Estimated marginal percentage achieving meaningful clinical improvement on the PROMIS Sleep 8A (sleep disturbance [1]; 100 mg CBN): 49.1% (36.96%, 65.24%) | Parameter Estimate for PROMIS Sleep Disturbances 8a, Treatment (sleep disturbance [1]; 100 mg CBN): 0.59 | Estimated marginal mean, PROMIS Sleep Disturbance 8A (sleep disturbance [1]; 100 mg CBN, week 1): 20.99 | Estimated marginal mean, PROMIS Sleep Disturbance 8A (sleep disturbance [1]; 100 mg CBN, week 2): 21.77 | Estimated marginal mean, PROMIS Sleep Disturbance 8A (sleep disturbance [1]; 100 mg CBN, week 3): 20.84 | Estimated marginal mean, PROMIS Sleep Disturbance 8A (sleep disturbance [1]; 100 mg CBN, week 4): 20.9 | Relative Risk for meaningful clinical improvement on the PROMIS Sleep SF4A (sleep disturbance [2]; 25 mg CBN − placebo): 1.35 (0.66, 2.03) | Observed % Achieving Meaningful Clinical Improvement on the PROMIS Sleep SF4A (sleep disturbance [2]; 25 mg CBN): 47.83% | Estimated marginal percentage achieving meaningful clinical improvement on the PROMIS Sleep SF4A (sleep disturbance [2]; 25 mg CBN): 46.28% (34.73%, 61.7%) | Estimated marginal mean, PROMIS Sleep Disturbance SF4A (sleep disturbance [2]; 25 mg CBN, week 1): 11.0 | Estimated marginal mean, PROMIS Sleep Disturbance SF4A (sleep disturbance [2]; 25 mg CBN, week 2): 10.81 | Estimated marginal mean, PROMIS Sleep Disturbance SF4A (sleep disturbance [2]; 25 mg CBN, week 3): 11.1 | Estimated marginal mean, PROMIS Sleep Disturbance SF4A (sleep disturbance [2]; 25 mg CBN, week 4): 10.9 | Relative Risk for meaningful clinical improvement on the PROMIS Sleep SF4A (sleep disturbance [2]; 50 mg CBN − placebo): 1.59 (0.81, 2.37) | Observed % Achieving Meaningful Clinical Improvement on the PROMIS Sleep SF4A (sleep disturbance [2]; 50 mg CBN): 58.33% | Estimated marginal percentage achieving meaningful clinical improvement on the PROMIS Sleep SF4A (sleep disturbance [2]; 50 mg CBN): 54.76% (41.80%, 71.7%) | Estimated marginal mean, PROMIS Sleep Disturbance SF4A (sleep disturbance [2]; 50 mg CBN, week 1): 10.7 | Estimated marginal mean, PROMIS Sleep Disturbance SF4A (sleep disturbance [2]; 50 mg CBN, week 2): 10.9 | Estimated marginal mean, PROMIS Sleep Disturbance SF4A (sleep disturbance [2]; 50 mg CBN, week 3): 10.8 | Estimated marginal mean, PROMIS Sleep Disturbance SF4A (sleep disturbance [2]; 50 mg CBN, week 4): 10.3 | Relative Risk for meaningful clinical improvement on the PROMIS Sleep SF4A (sleep disturbance [2]; 100 mg CBN − placebo): 1.47 (0.75, 2.19) | Observed % Achieving Meaningful Clinical Improvement on the PROMIS Sleep SF4A (sleep disturbance [2]; 100 mg CBN): 53.19% | Estimated marginal percentage achieving meaningful clinical improvement on the PROMIS Sleep SF4A (sleep disturbance [2]; 100 mg CBN): 50.56% (38.37%, 66.6%) | Estimated marginal mean, PROMIS Sleep Disturbance SF4A (sleep disturbance [2]; 100 mg CBN, week 1): 10.8 | Estimated marginal mean, PROMIS Sleep Disturbance SF4A (sleep disturbance [2]; 100 mg CBN, week 2): 11.33 | Estimated marginal mean, PROMIS Sleep Disturbance SF4A (sleep disturbance [2]; 100 mg CBN, week 3): 10.8 | Estimated marginal mean, PROMIS Sleep Disturbance SF4A (sleep disturbance [2]; 100 mg CBN, week 4): 10.8 | Marginal mean (95% confidence interval), sleep disturbance PGIC (sleep disturbance [3]; 25 mg CBN): 3.81 | Odds Ratio (95% Confidence interval), sleep disturbance PGIC (sleep disturbance [3]; 25 mg CBN − placebo): 1.88 (0.98, 3.62) | Parameter estimate for PGIC in sleep disturbance (sleep disturbance [3]; 25 mg CBN): 0.63 | Marginal mean (95% confidence interval), sleep disturbance PGIC (sleep disturbance [3]; 50 mg CBN): 3.91 | Odds Ratio (95% Confidence interval), sleep disturbance PGIC (sleep disturbance [3]; 50 mg CBN − placebo): 2.35 (1.22, 4.51) | Parameter estimate for PGIC in sleep disturbance (sleep disturbance [3]; 50 mg CBN): 0.85 | Marginal mean (95% confidence interval), sleep disturbance PGIC (sleep disturbance [3]; 100 mg CBN): 3.91 | Odds Ratio (95% Confidence interval), sleep disturbance PGIC (sleep disturbance [3]; 100 mg CBN − placebo): 2.35 (1.24, 4.44) | Parameter estimate for PGIC in sleep disturbance (sleep disturbance [3]; 100 mg CBN): 0.85 | Average time to effect ([4]; 25 mg CBN softgel): 54.9 min | Average time to effect ([4]; 50 mg CBN softgel): 55.5 min | Average time to effect ([4]; 100 mg CBN softgel): 46.4 min | % of participants reporting any side effects ([5]; 25 mg CBN): 6.8% | % of participants reporting any side effects ([5]; 50 mg CBN): 12.9% | % of participants reporting any side effects ([5]; 100 mg CBN): 7.9%
